Laboratory results: ChEMBL document CHEMBL1137443, “Preparation of 4-aryl-2-trifluoromethylbenzonitrile derivatives as androgen receptor antagonists for topical suppression of sebum production” (Bioorg Med Chem Lett, 2007)

Experiments:
Progesterone receptor = biological target: T1, Progesterone receptor (Homo sapiens, UniProt P06401); test: Binding affinity at human PR
T1 sequence (P06401 whole entry): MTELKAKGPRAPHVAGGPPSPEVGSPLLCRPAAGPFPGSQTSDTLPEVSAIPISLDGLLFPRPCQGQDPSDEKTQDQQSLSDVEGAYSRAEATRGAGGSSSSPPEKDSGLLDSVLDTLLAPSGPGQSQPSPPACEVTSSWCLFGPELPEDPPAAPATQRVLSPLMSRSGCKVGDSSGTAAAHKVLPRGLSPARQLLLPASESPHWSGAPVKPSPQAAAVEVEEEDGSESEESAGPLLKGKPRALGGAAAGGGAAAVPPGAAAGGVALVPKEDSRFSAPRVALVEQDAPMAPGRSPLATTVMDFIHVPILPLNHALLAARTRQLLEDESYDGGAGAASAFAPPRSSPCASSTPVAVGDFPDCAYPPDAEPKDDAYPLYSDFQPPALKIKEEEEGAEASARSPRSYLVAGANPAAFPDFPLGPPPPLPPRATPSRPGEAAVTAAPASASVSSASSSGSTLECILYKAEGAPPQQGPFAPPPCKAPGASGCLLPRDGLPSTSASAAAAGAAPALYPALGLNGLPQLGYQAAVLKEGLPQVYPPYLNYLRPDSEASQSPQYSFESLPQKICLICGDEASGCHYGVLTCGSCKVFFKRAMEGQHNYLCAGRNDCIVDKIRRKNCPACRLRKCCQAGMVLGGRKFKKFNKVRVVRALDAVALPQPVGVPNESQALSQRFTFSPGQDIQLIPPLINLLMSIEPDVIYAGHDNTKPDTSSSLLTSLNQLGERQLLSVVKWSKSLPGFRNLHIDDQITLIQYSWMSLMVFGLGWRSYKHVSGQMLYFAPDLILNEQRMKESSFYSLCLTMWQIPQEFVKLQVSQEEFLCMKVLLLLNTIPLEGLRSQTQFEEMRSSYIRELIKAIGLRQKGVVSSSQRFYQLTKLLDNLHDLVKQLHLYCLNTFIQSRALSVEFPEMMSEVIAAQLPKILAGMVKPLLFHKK

Androgen receptor [1] = biological target: T2, Androgen receptor (Homo sapiens, UniProt P10275); test: Antagonist activity at human AR in MDA-MB453-MMTV-luci cells by functional assay; assay type: cell-based
T2 sequence (P10275 whole entry): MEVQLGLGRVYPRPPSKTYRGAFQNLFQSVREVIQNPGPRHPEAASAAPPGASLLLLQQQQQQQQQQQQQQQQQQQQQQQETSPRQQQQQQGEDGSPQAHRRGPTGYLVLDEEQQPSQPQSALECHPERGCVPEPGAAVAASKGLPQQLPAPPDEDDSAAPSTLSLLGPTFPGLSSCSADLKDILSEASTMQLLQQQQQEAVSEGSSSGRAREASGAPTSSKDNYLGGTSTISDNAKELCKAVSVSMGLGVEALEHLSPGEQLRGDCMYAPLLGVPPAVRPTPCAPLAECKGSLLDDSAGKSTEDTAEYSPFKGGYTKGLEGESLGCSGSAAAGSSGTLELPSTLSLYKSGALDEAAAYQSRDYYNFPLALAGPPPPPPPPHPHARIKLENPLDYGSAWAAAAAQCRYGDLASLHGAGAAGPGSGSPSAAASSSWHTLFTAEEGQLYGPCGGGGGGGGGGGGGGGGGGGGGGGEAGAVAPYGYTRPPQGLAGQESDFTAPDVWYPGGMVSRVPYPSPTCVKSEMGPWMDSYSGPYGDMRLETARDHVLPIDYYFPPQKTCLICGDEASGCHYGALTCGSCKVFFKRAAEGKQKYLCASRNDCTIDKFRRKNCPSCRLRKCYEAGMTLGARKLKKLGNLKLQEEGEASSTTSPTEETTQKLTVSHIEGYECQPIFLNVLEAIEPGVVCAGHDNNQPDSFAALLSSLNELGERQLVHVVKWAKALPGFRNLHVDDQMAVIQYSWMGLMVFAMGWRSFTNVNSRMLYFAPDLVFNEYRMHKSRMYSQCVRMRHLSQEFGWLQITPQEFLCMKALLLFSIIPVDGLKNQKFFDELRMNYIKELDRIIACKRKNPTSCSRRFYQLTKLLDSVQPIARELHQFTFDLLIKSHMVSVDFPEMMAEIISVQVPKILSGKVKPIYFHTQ

Androgen receptor [2] = biological target: T2, Androgen receptor; test: Displacement of [3H]DHT from human recombinant AR expressed in Sf9 cells
Syrian golden hamster = test: Reduction of wax ester in Golden Syrian hamster ear model relative to control; assay type: functional, Mesocricetus auratus; design: scale not given: the % may be the effect or the level left

SMILES | IC50 (Progesterone receptor) [µM] | IC50 (Androgen receptor [1]) [nM] | IC50 (Androgen receptor [2]) [nM] | Activity (Syrian golden hamster) [%]
COc1ccc(-c2ccc(C#N)c(C(F)(F)F)c2)cc1 | 5.52 | 0.8 | 56.7 | 
N#Cc1ccc(-c2ccc(O)cc2)cc1C(F)(F)F | > 10 | 11.9 | 61.2 | 
Cc1ccccc1-c1ccc(C#N)c(C(F)(F)F)c1 |  | > 1000 | 146 | 
Cc1cccc(-c2ccc(C#N)c(C(F)(F)F)c2)c1 |  |  | 1900 | 
COC(=O)COc1ccccc1-c1ccc(C#N)c(C(F)(F)F)c1 |  |  | 1310 | 
N#Cc1ccc(-c2ccccc2OCCO)cc1C(F)(F)F |  |  | 1540 | 
COCCOCCOc1ccccc1-c1ccc(C#N)c(C(F)(F)F)c1 |  |  | 8140 | 
N#Cc1ccc(-c2ccccc2Cl)cc1C(F)(F)F |  |  | 9.8 | 
COc1ccccc1-c1ccc(C#N)c(C(F)(F)F)c1 | 3.25 | 20.1 | 37 | 
COCCOc1ccccc1-c1ccc(C#N)c(C(F)(F)F)c1 |  |  | 2230 | 
N#Cc1ccc(-c2ccccc2O)cc1C(F)(F)F | 4.45 | 0.02 | 39.9 | 86
N#Cc1ccc(-c2cccc(O)c2)cc1C(F)(F)F |  |  | 229 | 
Cc1ccc(-c2ccc(C#N)c(C(F)(F)F)c2)cc1 |  | 843 | 200 | 
N#Cc1ccc(-c2c(O)cccc2O)cc1C(F)(F)F |  |  | 989 | 
N#Cc1ccc(-c2ccccc2C(F)(F)F)cc1C(F)(F)F |  | > 1 | 10.9 | 
COc1cccc(OC)c1-c1ccc(C#N)c(C(F)(F)F)c1 |  | 399 | 14.7 | 
COc1cccc(-c2ccc(C#N)c(C(F)(F)F)c2)c1 | 9.46 | 140 | 955 | 
N#Cc1ccc(-c2ccccc2OCC(=O)O)cc1C(F)(F)F |  |  | > 10000 | 
CC1(C)C(=O)N(c2ccc(C#N)c(C(F)(F)F)c2)C(=O)N1CCCCO [RU-58841] |  |  |  | 95
